Measured values from US20210386730A1 (priority 2020, published 2021).

Assay: Solubility of indacaterol maleate and glycopyrrolate
Type: physicochemical
Protocol: In a formulation it is necessary to be sure that the active pharmaceutical ingredients (API) are dissolved completely.
0.02% tween-80: […].
pH=3 0.02% tween-80: […], adjust pH to 3 with hydrochloric acid. Other solutions were similarly prepared. The percentages mentioned above are percentages by weight.

Solubility (0.02% tween-80): 29.52 mg/100 ml
Solubility (Purified water): 29.95 mg/100 ml
Solubility (in words) (cyclodextrin added): improved significantly
Solubility (in words) (in purified water): not sufficiently soluble
Solubility (pH = 3 0.02% tween-80): 32.17 mg/100 ml
Solubility (pH = 3 2.5% SBECD solution): 351.46 mg/100 ml
Solubility (pH = 3 5% SBECD solution): 539.5 mg/100 ml
Solubility (pH = 3 Purified water): 31.21 mg/100 ml
Solubility (pH = 3.5 0.02% tween-80): 30.8 mg/100 ml
Solubility (pH = 3.5 Purified water): 29.97 mg/100 ml
Solubility (pH = 4 0.02% tween-80): 30.91 mg/100 ml
Solubility (pH = 4 0.5% SBECD solution): 55.523 mg/100 ml
Solubility (pH = 4 1% SBECD solution): 161.866 mg/100 ml
Solubility (pH = 4 2% SBECD solution): 211.4 mg/100 ml
Solubility (pH = 4 5% SBECD solution): 316 mg/100 ml
Solubility (pH = 4 Purified water): 30.82 mg/100 ml
Solubility (pH = 4.5 0.02% tween-80): 30.41 mg/100 ml
Solubility (pH = 4.5 Purified water): 30.32 mg/100 ml
Solubility (pH = 5 0.02% tween-80): 30.84 mg/100 ml
Solubility (pH = 5 Purified water): 28.98 mg/100 ml
Solubility (in words) (tween 80 added): insufficient
SMILES: CCc1cc2c(cc1CC)CC(NC[C@H](O)c1ccc(O)c3[nH]c(=O)ccc13)C2.O=C(O)/C=C\C(=O)O [Indacaterol Maleate, (R)-5-[2-(5,6-Diethylindan-2-ylamino)-1-hydroxyethyl]-8-hydroxy-1H-quinolin-2-one maleate]
